Data as given in US20230310393A1 (Tianjin Creatron Biotechnology Co., Ltd., priority 2020, published 2023).
Structures can show the parent of a compound that is named as a salt.

Tests used:
[1] = Solubility test of solid dispersions (pH 1.0 hydrochloric acid, pH 6.8 phosphate buffer, FaSSGF, FaSSIF); format: physicochemical; conditions: pH 1.0 hydrochloric acid solution, 37° C., main drug:carrier 1:3
Protocol: An appropriate amount of solid dispersion (SD) was added to a pH 1.0 hydrochloric acid solution and a pH 6.8 phosphate buffer solution, while keeping the SD in excess, and shaken at 37° C. in a shaker at 300 rpm.

[2] = Screening of crystallization inhibitors: sorafenib content in polymer carrier/cholate medium over time; format: physicochemical; conditions: pH 6.8 phosphate + 0.1% SDS with the inhibitor, 37° C.

Solubility ([1]; 0.5 h) [µg/mL]	Solubility ([1]; 2 h) [µg/mL]	Solubility ([1]; 4 h) [µg/mL]	Sorafenib content detection ([2]; 0.5 h) [µg/mL]	Sorafenib content detection ([2]; 1 h) [µg/mL]	Sorafenib content detection ([2]; 2 h) [µg/mL]	Sorafenib content detection ([2]; 3 h) [µg/mL]	Sorafenib content detection ([2]; 4 h) [µg/mL]	Sorafenib content detection ([2]; 6 h) [µg/mL]	Compound
3.7	4.1	4.1	–	–	–	–	–	–	CNC(=O)c1cc(Oc2ccc(NC(=O)Nc3ccc(Cl)c(C(F)(F)F)c3)cc2)ccn1 [TSSLFN, Sorafenib tosylate]
–	–	–	61.59	47.08	10.41	5.38	4.28	3.68	C[C@H](CCC(=O)NCC(=O)[O-])[C@H]1CC[C@H]2[C@@H]3[C@H](O)C[C@@H]4C[C@H](O)CC[C@]4(C)[C@H]3CC[C@]12C.[Na+] [0.3% SGCDC, sodium glycochenodeoxycholate]
–	–	–	14.32	5.88	4.32	3.98	3.77	3.57	C[C@H](CCC(=O)NCC(=O)[O-])[C@H]1CC[C@H]2[C@@H]3[C@H](O)C[C@@H]4C[C@H](O)CC[C@]4(C)[C@H]3C[C@H](O)[C@]12C.[Na+] [0.3% SGC, sodium glycocholate]

Continued, compound first:

Compound	Solubility ([1]; 0.5 h) [µg/mL]	Solubility ([1]; 2 h) [µg/mL]	Solubility ([1]; 4 h) [µg/mL]	Sorafenib content detection ([2]; 0.5 h) [µg/mL]	Sorafenib content detection ([2]; 1 h) [µg/mL]	Sorafenib content detection ([2]; 2 h) [µg/mL]	Sorafenib content detection ([2]; 3 h) [µg/mL]	Sorafenib content detection ([2]; 4 h) [µg/mL]	Sorafenib content detection ([2]; 6 h) [µg/mL]
C[C@H](CCC(=O)NCC(=O)[O-])[C@H]1CC[C@H]2[C@@H]3CC[C@@H]4C[C@H](O)CC[C@]4(C)[C@H]3C[C@H](O)[C@]12C.[Na+] [0.3% SGDC, sodium glycodeoxycholate]	–	–	–	15.78	6.28	4.11	4.01	4.04	3.87
C[C@H](CCC(=O)NCCS(=O)(=O)[O-])[C@H]1CC[C@H]2[C@@H]3CC[C@@H]4C[C@H](O)CC[C@]4(C)[C@H]3C[C@H](O)[C@]12C.[Na+] [0.3% STDC, sodium taurodeoxycholate]	–	–	–	47.72	25.90	11.19	7.82	6.58	5.90
C[C@H](CCC(=O)NCCS(=O)(=O)[O-])[C@H]1CC[C@H]2[C@@H]3[C@@H](O)C[C@@H]4C[C@H](O)CC[C@]4(C)[C@H]3CC[C@]12C.[Na+] [0.3% STCDC]	–	–	–	14.43	6.22	4.69	4.79	4.81	5.79
